Columns and labels:
[1] = Bacterial membrane permeabilization assay (carboxyfluorescein leakage from liposomes); assay type: biochemical; details: large unilamellar liposomes from E. coli phospholipid extract, 45 min, 37 °C
[2] = biological target: cellular LPS receptors; design: method as in PMID 24281661; details: read-out: IC50 inhibition of binding of bacterial LPS to cellular receptors; cited from earlier work

Substance: polymyxin B
- EC50 [1]: 1 µM
- EC50 ([1]; listed as Polymyxin B): ~1 µM
- IC50 [2]: 0.0036 µM
